Assay results: patent publication US5458876A, “Control of microbial growth with lantibiotic/lysozyme formulations” (priority 1990, dated 1995)
Ends that are not written are not given here.

Key:
L. monocytogenes Scott A = assay: Survival of cells in citric acid buffer with subtilin and/or lysozyme; type: cell-based, Listeria monocytogenes; details: for Surviving Cells After 1 Hour at 25° C.: 10 mM citric acid buffer pH 5.5, untreated 7.5; for Surviving Cells After 1 Hour at 25° C. / log10 reduction: subtilin 100 μ/ml and/or lysozyme 500 ppm; for log10 reduction / effect on the L. monocytogenes cells: 1 hour at 25° C., pH 5.5; for effect on the L. monocytogenes cells: alone, subtilin 100 μ/ml or lysozyme 500 ppm
Method: A culture of L. monocytogenes Scott A was grown overnight in BHI broth and diluted 1:100 in 10 mM citric acid buffer (pH 5.5). This preparation, 100 μl, was added to 900 μl of citric acid buffer containing subtilin, lysozyme or both. The subtilin used in this experiment was prepared by the pure culture fermentation of Bacillus subtillus ATCC 6633 as described by Banerjee and Hansen in J. Biol. Chem. 1988 263 (19): 9508-9514.

L. monocytogenes = assay: Growth of L. monocytogenes in inoculated raw pork sausage (surface response model); type: cell-based, Listeria monocytogenes; details: alone, 0-500 IU/gm nisin or 0-500 ppm lysozyme; 3 days at 5° C.
Method: L. monocytogenes can grow at 5° C. and poses a threat to some processed meats. Its control can include reduction in the rate of growth, bacteriostatic effects, and most desirably, bacteriocidal effects.
Raw sausage was inoculated with L. monocytogenes from a BHI overnight culture; various amounts of nisin and/or lysozyme were incorporated into the sausage. The treated sausage was held for either 3 or 21 days at 5° C. whereupon viable L. monocytogenes were enumerated. A surface response model was constructed over a range of 0-500 IU/gm nisin and 0-500 ppm lysozyme. The surface response model from the 3 day data are set out in the following FIG. 3. […] Similar synergies are seen at other levels of nisin and lysozyme.

[1] = test system: Listeria monocytogenes, Scott A; assay: Lysis of washed cells at various pH levels (loss of absorbance at 540 nm); type: cell-based; details: 100 IU/ml nisin alone or 10 μg/ml lysozyme alone; 37°
Method: A culture of Listeria monocytogenes, Scott A, was grown overnight in BHI broth and harvested by centrifugation. The harvested cells were washed with 0.067M Potassium phosphate buffer (pH 6.6) and resuspended in 0.067M potassium phosphate buffer at various pH levels to a final absorbance of about 1.0 at 540 nm as determined in a Bausch & Lomb spectronic 20. Lysis of the bacteria is accompanied by a loss in absorbance at 540 nm. Nisin and lysozyme were added to these solutions to final concentrations of 100 IU/ml nisin and 10 μg/ml lysozyme and the solutions were placed in a 37° water bath whereupon the change in adsorption at 540 nm was monitored.

[2] = test system: Listeria monocytogenes Scott A; assay: Disk inhibition of growth on BHI agar overlay plates; type: cell-based; details: 10 μl on disks, overnight 37° C.; nisin below 50 IU/ml; lysozyme up to and including 125 μg/ml; blend 50 IU/ml nisin and 50 μg/ml lysozyme
Method: A culture of Listeria monocytogenes Scott A was grown overnight in Brain Heart Infusion broth (BHI, Difco Laboratories, Inc.). Overlay plates were prepared using 25 ml of BHI agar overlayed with 4 ml BHI agar containing 10 μl of the overnight culture. Sterile antibiotic sensitivity disks were blotted with 10 μl of nisin, lysozyme or nisin/lysozyme blends at various concentrations; placed on the surface of the overlay plates and incubated overnight at 37° C.

[3] = test system: S. typhimurium (ATCC 14028); assay: Survival of cells in citric acid buffer with nisin and/or lysozyme; type: cell-based, Salmonella typhimurium
Method: A culture of S. typhimurium (ATCC 14028) was grown overnight on nutrient broth, diluted in 10 mM citric acid buffer (pH 3.5) and added to citric acid buffer containing nisin, lysozyme or a combination thereof.

Staphlococcus aureus = assay: Minimal inhibitory concentration in BHI broth; type: cell-based; details: lysozyme alone, 37° C.
Method: The synergy of nisin and lysozyme is not limited to the control of L. monocytogenes. The minimal inhibitory concentration (MIC) of nisin was lowered by the addition of lysozyme for the control of other gram positive bacteria. For example, a culture of Staphlococcus aureus was grown overnight in BHI broth and subsequently diluted into fresh BHI broth with various concentrations of nisin, lysozyme or a combination of nisin and lysozyme. […] Accordingly, one can use less nisin to provide an equivalent level of control by the addition of a synergistic amount of lysozyme.

Row | Substance | Surviving Cells After 1 Hour at 25° C. (L. monocytogenes Scott A) | log10 reduction (L. monocytogenes Scott A) [log10] | effect on the L. monocytogenes cells (L. monocytogenes Scott A) | control of L. monocytogenes in raw sausage (L. monocytogenes) | pH of maximum lysis [1] | inhibition of bacterial growth (zone of inhibition around disks) [2] | Surviving Cells After 1 Hour at 37° C. ([3]; 10 mM citric acid buffer pH 3.5, nisin 1000 IU/ml and/or lysozyme 500 μg/ml, untreated 7.18) | log10 reduction ([3]; 1 hour at 37° C., pH 3.5, nisin 1000 IU/ml and/or lysozyme 500 μg/ml) [log10] | effect against S. typhimurium ([3]; lysozyme 500 μg/ml alone, 1 hour at 37° C., pH 3.5) | effect on subsequent growth of the bacteria (Staphlococcus aureus)
1 | subtilin (WKSESLCTPGCVTGALQTCFLQTLTCNCKISK; cysteine pairing not given here; also: lantibiotic thioether and dehydro residues, places not given here; UniProt P10946 25-56, looked up) [lantibiotic prepared by pure culture fermentation of Bacillus subtillus ATCC 6633, reference compound] | 7.2 log10 colony forming units/ml | 0.3 | little effect | – | – | – | – | – | – | –
2 | lysozyme | 7.4 log10 colony forming units/ml | 0.1 | little effect | ineffective | 6.0-6.5 pH | nor was inhibition observed | 7.08 log10 colony forming units/ml | 0.10 | ineffective | did not affect
